Among the data in ChEMBL document CHEMBL3991601, “The target landscape of clinical kinase drugs” (Science, 2017) are Kd values, retold here.

Calls of active or inactive are those of the source.

In experiment [1] the target is T1, Cytochrome c1, heme protein, mitochondrial (Homo sapiens, UniProt P08574).
T1 sequence (P08574 whole entry): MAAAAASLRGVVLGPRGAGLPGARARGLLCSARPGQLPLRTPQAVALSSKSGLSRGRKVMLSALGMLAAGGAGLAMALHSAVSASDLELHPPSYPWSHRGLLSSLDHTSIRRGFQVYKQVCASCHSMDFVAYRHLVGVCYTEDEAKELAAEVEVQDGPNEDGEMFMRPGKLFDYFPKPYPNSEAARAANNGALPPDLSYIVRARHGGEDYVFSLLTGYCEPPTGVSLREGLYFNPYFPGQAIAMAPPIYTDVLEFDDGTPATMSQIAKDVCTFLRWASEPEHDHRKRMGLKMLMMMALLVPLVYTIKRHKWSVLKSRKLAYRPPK

The target in a further experiment is Myosin-14 (Homo sapiens, UniProt Q7Z406).
Sequence of Myosin-14 (Q7Z406 whole entry): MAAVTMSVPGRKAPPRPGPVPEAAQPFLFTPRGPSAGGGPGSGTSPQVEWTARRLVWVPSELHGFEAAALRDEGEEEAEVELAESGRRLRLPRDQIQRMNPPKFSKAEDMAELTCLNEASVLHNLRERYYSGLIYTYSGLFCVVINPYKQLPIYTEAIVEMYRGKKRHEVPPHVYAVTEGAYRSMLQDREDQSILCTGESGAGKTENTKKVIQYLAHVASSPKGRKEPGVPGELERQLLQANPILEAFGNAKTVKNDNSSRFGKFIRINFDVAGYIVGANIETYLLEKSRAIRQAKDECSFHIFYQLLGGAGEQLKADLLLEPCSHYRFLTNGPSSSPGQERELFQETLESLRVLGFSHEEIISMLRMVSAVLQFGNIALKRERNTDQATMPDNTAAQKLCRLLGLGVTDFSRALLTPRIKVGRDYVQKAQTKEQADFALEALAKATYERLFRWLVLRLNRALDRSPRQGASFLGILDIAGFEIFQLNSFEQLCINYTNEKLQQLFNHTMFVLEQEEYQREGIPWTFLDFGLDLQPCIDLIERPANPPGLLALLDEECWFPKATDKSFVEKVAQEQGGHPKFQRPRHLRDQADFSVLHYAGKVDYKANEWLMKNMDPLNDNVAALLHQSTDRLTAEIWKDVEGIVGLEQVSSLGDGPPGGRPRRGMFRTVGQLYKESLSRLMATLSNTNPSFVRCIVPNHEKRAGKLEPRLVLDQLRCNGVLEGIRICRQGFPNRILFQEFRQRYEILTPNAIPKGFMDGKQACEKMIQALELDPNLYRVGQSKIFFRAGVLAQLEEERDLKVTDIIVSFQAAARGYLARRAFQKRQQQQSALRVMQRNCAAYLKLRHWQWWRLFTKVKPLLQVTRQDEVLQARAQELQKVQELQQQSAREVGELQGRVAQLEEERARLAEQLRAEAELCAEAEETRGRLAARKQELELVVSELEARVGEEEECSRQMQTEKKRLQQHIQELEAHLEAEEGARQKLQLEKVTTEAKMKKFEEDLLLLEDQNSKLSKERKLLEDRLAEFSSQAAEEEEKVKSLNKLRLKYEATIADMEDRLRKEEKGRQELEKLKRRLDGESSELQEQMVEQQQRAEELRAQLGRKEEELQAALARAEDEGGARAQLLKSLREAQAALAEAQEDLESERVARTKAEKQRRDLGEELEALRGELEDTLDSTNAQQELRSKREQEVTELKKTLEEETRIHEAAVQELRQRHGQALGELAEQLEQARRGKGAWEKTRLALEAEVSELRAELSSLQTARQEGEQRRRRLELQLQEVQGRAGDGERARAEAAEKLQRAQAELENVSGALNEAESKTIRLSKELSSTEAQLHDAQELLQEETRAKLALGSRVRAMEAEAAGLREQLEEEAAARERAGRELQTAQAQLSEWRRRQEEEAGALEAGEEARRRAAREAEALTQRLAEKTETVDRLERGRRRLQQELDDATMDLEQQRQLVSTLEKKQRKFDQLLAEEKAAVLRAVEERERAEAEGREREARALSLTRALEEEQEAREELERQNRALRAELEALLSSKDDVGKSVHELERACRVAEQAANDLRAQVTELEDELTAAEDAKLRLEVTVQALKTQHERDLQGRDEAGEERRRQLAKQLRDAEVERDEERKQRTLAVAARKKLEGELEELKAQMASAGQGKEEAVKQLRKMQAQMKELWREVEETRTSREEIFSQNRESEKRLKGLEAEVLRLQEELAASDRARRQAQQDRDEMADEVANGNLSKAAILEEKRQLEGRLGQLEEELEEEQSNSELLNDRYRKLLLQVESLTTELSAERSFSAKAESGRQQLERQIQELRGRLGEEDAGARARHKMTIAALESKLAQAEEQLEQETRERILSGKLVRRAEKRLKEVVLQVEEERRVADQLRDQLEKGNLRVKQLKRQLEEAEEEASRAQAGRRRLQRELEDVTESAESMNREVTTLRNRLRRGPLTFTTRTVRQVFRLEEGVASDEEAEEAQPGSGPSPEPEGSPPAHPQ
Experiment [2] has as its target NADH dehydrogenase [ubiquinone] 1 alpha subcomplex subunit 13 (Homo sapiens, UniProt Q9P0J0).
Experiment [3] has as its target Serine/threonine-protein kinase N2 (Homo sapiens, UniProt Q16513).
Another experiment concerns the target Focal adhesion kinase 1 (Homo sapiens, UniProt Q05397).
Experiment [4] concerns the target T2, Serine/threonine-protein kinase TAO3 (Homo sapiens, UniProt Q9H2K8).
T2 sequence (Q9H2K8 whole entry): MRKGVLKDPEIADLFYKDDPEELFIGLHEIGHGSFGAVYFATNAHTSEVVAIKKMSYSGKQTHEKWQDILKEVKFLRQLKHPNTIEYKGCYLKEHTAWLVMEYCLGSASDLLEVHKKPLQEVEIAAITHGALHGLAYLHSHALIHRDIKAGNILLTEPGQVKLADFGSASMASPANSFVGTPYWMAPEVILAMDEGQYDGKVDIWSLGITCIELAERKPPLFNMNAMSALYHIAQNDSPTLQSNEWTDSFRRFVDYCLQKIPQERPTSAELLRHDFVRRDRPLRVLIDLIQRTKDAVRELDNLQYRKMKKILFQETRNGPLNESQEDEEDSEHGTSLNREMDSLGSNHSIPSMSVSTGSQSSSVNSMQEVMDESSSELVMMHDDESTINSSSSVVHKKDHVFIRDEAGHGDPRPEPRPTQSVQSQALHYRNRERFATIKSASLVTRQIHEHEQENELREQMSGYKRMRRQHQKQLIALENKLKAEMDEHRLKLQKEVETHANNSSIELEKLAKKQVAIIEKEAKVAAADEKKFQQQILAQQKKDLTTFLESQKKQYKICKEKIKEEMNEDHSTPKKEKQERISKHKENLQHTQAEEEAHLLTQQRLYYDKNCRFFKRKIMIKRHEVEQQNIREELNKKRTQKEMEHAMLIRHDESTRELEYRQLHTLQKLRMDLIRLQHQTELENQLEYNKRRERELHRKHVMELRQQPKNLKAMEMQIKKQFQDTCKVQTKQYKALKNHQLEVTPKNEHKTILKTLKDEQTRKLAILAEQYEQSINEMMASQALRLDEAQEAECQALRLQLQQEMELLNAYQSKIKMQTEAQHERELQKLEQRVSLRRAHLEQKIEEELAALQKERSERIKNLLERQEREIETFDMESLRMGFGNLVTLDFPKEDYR

Experiment [5] addresses T3, Tyrosine-protein kinase Tec (Homo sapiens, UniProt P42680).
T3 sequence (P42680 whole entry): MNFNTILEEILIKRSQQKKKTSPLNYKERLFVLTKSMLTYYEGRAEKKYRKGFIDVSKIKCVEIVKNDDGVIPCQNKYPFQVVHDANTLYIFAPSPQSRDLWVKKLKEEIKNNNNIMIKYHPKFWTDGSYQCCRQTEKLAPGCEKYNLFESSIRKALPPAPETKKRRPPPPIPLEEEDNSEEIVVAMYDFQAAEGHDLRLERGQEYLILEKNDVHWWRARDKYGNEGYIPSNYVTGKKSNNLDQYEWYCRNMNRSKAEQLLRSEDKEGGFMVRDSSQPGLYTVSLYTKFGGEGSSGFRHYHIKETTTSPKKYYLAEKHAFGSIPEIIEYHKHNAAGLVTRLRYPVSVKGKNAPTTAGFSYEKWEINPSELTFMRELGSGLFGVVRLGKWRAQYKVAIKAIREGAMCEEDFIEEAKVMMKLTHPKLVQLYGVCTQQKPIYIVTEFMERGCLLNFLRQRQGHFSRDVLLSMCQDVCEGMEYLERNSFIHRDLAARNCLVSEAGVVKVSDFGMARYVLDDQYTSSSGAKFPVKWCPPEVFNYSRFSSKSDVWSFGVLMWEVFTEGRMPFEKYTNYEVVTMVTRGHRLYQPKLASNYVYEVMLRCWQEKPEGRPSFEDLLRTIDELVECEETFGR

For experiment [6], the target named is Elongation factor Tu, mitochondrial (Homo sapiens, UniProt P49411).
Note: in the data inactive means no Kd found up to 30 µM.

Sequence of Focal adhesion kinase 1 (Q05397 whole entry): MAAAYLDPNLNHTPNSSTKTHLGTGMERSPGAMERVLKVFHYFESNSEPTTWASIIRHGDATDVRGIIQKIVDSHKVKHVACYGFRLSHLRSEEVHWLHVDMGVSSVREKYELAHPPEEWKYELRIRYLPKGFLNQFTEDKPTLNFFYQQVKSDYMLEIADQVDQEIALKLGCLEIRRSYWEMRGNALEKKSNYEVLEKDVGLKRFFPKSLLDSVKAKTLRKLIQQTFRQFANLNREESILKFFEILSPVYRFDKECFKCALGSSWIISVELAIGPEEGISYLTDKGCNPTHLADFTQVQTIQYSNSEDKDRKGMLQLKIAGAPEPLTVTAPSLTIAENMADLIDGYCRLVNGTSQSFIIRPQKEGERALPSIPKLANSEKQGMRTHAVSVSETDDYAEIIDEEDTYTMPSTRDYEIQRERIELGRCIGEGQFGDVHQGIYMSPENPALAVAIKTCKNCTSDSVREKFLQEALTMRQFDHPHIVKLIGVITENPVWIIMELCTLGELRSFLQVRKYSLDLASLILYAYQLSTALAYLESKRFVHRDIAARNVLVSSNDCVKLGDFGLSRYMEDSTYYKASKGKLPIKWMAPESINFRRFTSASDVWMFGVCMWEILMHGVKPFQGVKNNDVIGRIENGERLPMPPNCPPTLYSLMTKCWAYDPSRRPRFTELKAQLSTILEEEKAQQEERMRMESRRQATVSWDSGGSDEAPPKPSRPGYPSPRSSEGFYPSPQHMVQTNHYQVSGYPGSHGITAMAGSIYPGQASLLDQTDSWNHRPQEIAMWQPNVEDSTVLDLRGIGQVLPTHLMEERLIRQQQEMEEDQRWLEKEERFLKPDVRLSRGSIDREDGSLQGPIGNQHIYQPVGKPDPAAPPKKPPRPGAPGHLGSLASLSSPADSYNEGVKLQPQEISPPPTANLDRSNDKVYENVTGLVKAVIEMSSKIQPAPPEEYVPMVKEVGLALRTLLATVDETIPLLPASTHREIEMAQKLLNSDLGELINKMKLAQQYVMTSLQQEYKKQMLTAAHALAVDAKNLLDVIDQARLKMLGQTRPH
Sequence of NADH dehydrogenase [ubiquinone] 1 alpha subcomplex subunit 13 (Q9P0J0 whole entry, one chain of several): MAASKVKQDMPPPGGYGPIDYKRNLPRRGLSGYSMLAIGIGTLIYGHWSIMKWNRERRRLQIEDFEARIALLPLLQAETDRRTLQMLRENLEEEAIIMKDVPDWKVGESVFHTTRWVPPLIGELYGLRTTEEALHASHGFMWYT
Sequence of Serine/threonine-protein kinase N2 (Q16513 whole entry): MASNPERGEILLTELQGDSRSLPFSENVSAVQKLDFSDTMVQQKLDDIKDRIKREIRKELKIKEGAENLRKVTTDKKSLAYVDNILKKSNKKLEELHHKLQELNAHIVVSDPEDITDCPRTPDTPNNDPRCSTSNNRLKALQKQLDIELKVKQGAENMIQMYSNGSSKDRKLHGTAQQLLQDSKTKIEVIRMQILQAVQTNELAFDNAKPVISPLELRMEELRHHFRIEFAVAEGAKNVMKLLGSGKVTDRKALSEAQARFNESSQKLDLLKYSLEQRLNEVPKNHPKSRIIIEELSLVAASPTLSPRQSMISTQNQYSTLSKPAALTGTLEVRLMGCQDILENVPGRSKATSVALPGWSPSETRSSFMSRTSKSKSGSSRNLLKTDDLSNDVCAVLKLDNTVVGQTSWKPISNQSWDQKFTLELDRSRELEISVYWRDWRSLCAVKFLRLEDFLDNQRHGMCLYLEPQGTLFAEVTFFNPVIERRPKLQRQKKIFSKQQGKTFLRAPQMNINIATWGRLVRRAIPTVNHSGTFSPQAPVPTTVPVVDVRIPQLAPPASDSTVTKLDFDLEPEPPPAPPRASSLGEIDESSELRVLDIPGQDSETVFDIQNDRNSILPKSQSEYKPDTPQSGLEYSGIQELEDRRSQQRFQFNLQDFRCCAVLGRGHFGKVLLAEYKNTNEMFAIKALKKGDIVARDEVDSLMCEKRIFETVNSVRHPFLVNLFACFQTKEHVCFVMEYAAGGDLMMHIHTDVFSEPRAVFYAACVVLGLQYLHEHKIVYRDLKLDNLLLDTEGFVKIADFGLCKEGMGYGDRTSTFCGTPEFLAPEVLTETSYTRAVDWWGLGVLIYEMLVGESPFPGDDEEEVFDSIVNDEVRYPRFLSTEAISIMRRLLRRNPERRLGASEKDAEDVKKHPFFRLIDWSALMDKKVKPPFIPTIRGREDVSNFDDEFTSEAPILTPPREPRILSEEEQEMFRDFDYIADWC

As a reminder, the Kd is the equilibrium constant for the complex coming apart. Take `Cn1cc(-c2cnn3c(N)c(Br)c([C@@H]4CCCNC4)nc23)cn1` [SCH-900776]: the Kd (in experiment [1]; on Myosin-14; in experiment [2]; in experiment [3]; on Focal adhesion kinase 1; in experiment [4]) was > 30 µM (inactive) each time. Also, the Kd in experiment [5] and in experiment [6] was > 30 µM (inactive) in each case.
On to `CCS(=O)(=O)c1cccc(-c2cc(C(=O)NC3CCN(C)CC3)c(C)c3[nH]c4ncc(C)cc4c23)c1` [TAK-901], for which the Kd in experiment [1] was > 30 µM (inactive); on Myosin-14, > 30 µM (inactive); in experiment [2], > 30 µM (inactive); in experiment [3], > 30 µM (inactive); at Focal adhesion kinase 1, 0.264 µM (active); in experiment [4] it was > 30 µM (inactive). For the same molecule, the dissociation constant (Kd) in experiment [5] is 0.282 µM (active); in experiment [6], > 30 µM (inactive).
In the case of `CO[C@H]1C[C@@H]2CC[C@@H](C)[C@@](O)(O2)C(=O)C(=O)N2CCCC[C@H]2C(=O)O[C@H]([C@H](C)C[C@@H]2CC[C@@H](OC(=O)C(C)(CO)CO)[C@H](OC)C2)CC(=O)[C@H](C)/C=C(\C)[C@@H](O)[C@@H](OC)C(=O)[C@H](C)C[C@H](C)/C=C/C=C/C=C/1C` [TEMSIROLIMUS], the Kd (in experiment [1]; at Myosin-14; in experiment [2]; in experiment [3]; at Focal adhesion kinase 1; in experiment [4]) was > 30 µM (inactive) each time. Also, the Kd in experiment [5] and in experiment [6] was > 30 µM (inactive) in each case.
`COc1cc2c(Nc3ccc(Cl)c(Cl)c3F)ncnc2cc1OC[C@@H]1C[C@@H]2CN(C)C[C@@H]2C1` [TESEVATINIB]: the Kd (in experiment [1]; at Myosin-14; in experiment [2]; in experiment [3]; at Focal adhesion kinase 1; in experiment [4]) was > 30 µM (inactive) each time. The Kd in experiment [5] and in experiment [6] was > 30 µM (inactive) each time.
Take `O=C(Cc1ccc(-c2ccc(OCCN3CCOCC3)cc2)cn1)NCc1ccccc1` [TIRBANIBULIN]: the Kd (in experiment [1]; on Myosin-14; in experiment [2]; in experiment [3]; at Focal adhesion kinase 1; in experiment [4]) was > 30 µM (inactive) in each case. For the same molecule, the Kd in experiment [5] and in experiment [6] was > 30 µM (inactive) throughout.
`O=C1NC(=O)[C@@H](c2cn3c4c(cccc24)CCC3)[C@@H]1c1c[nH]c2ccccc12` [TIVANTINIB]: the Kd (in experiment [1]; on Myosin-14; in experiment [2]; in experiment [3]; at Focal adhesion kinase 1; in experiment [4]) was > 30 µM (inactive) each time. In addition, the Kd in experiment [5] and in experiment [6] was > 30 µM (inactive) in each case.
With `C[C@@H](NC(=O)c1ncnc(N)c1Cl)c1ncc(C(=O)Nc2cc(C(F)(F)F)c(Cl)cn2)s1` [TOVORAFENIB], the Kd (in experiment [1]; at Myosin-14; in experiment [2]; in experiment [3]; at Focal adhesion kinase 1; in experiment [4]) was > 30 µM (inactive) throughout. Besides, the Kd in experiment [5] and in experiment [6] was > 30 µM (inactive) throughout.
Take `Cc1cc(Nc2ncnc3ccc(NC4=NC(C)(C)CO4)cc23)ccc1Oc1ccn2ncnc2c1` [TUCATINIB]: the Kd in experiment [1] was > 30 µM (inactive); at Myosin-14 it was 0.188 µM; in experiment [2] it was > 30 µM (inactive); in experiment [3] it was > 30 µM (inactive); at Focal adhesion kinase 1, > 30 µM (inactive); in experiment [4], > 30 µM (inactive). Further, the Kd in experiment [5] and in experiment [6] was > 30 µM (inactive) each time.
In the case of `CC(C)c1cc(CNc2nc(Nc3cc(C4CC4)[nH]n3)cc(N3CCN(C)CC3)n2)on1` [XL-228], the Kd is > 30 µM (inactive) in experiment [1]; > 30 µM (inactive) on Myosin-14; > 30 µM (inactive) in experiment [2]; > 30 µM (inactive) in experiment [3]; 0.022 µM (active) on Focal adhesion kinase 1; > 30 µM (inactive) in experiment [4]. The Kd in experiment [5] was 0.045 µM (active); in experiment [6] it was > 30 µM (inactive).
In the case of `C[C@@H](N)c1ccc(C(=O)Nc2ccnc3[nH]ccc23)cc1` [Y-39983], the Kd in experiment [1] is > 30 µM (inactive); on Myosin-14, > 30 µM (inactive); in experiment [2], > 30 µM (inactive); in experiment [3], 0.028 µM (active); at Focal adhesion kinase 1, > 30 µM (inactive); in experiment [4] it was > 30 µM (inactive). The Kd in experiment [5] and in experiment [6] was > 30 µM (inactive) in each case.
As to `CN1C/C=C/CCOc2cccc(c2)-c2ccnc(n2)Nc2cccc(c2)C1` [ZOTIRACICLIB], the Kd in experiment [1] is > 30 µM (inactive); at Myosin-14 it was > 30 µM (inactive); in experiment [2] it was > 30 µM (inactive); in experiment [3], 0.141 µM; at Focal adhesion kinase 1 it was > 30 µM (inactive); in experiment [4], 2.86 µM (active). The Kd in experiment [5] and in experiment [6] was > 30 µM (inactive) in each case.
